According to ChEMBL document CHEMBL1134703, “Simplified catechin-gallate inhibitors of HIV-1 reverse transcriptase” (Bioorg Med Chem Lett, 2001):

molecular target: Human immunodeficiency virus type 1 reverse transcriptase (Human immunodeficiency virus 1, UniProt Q72547); assay: Inhibition of polymerization in wild type HIV-1 RT with poly rC/dG12-18 template primer and [3H]dGTP

Going from `O=C(OC1COc2cc(O)cc(O)c2C1)c1ccc(O)cc1O` (stereo not drawn) to `O=C(OC1COc2cc(O)cc(O)c2C1)c1cccc(O)c1O` (stereo not drawn), the IC50 falls from 96.3 µM to 37.2 µM (2.6-fold).

First: O=C(OCCC1COc2cc(O)c(O)cc2C1)c1ccc(O)c(O)c1O (stereo not drawn)
Second: O=C(OC1COc2cc(O)cc(O)c2C1)c1ccc(O)c(O)c1O (stereo not drawn)
The IC50 of the first is 2.8-fold higher: 10.7 µM for the first, 3.83 µM for the second.

Compared with `O=C(OC1COc2ccccc2C1)c1ccc(O)c(O)c1O` (stereo not drawn), `O=C(OC1COc2cc(O)ccc2C1)c1ccc(O)c(O)c1O` (stereo not drawn) is lower in IC50: greater than 100 µM for the first, 36.3 µM for the second. The second is the more potent here.

First: O=C(OC1COc2cccc(O)c2C1)c1ccc(O)c(O)c1O (stereo not drawn)
Second: O=C(OC1COc2cc(O)cc(O)c2C1)c1cccc(O)c1 (stereo not drawn)
The IC50 of the first is lower: 45.5 µM for the first, greater than 100 µM for the second.

`O=C(O[C@@H]1Cc2c(O)cc(O)cc2O[C@@H]1c1cc(O)c(O)c(O)c1)c1cc(O)c(O)c(O)c1` [EPIGALOCATECHIN GALLATE] and `O=C(O[C@@H]1Cc2c(O)cc(O)cc2O[C@@H]1c1ccc(O)c(O)c1)c1cc(O)c(O)c(O)c1` [EPICATECHIN GALLATE] are within 1.5-fold of each other in IC50: 0.73 µM for the first, 0.76 µM for the second.

`O=C(OC1COc2cc(O)cc(O)c2C1)c1ccccc1` (stereo not drawn) and `Oc1cc(O)c2c(c1)O[C@H](c1ccc(O)c(O)c1)[C@H](O)C2` [(-)-EPICATECHIN] cannot be ordered by IC50: greater than 100 µM for the first, greater than 100 µM for the second.

With `O=C(O)c1cc(O)c(O)c(O)c1` [GALLIC ACID] the IC50 was greater than 100 µM.
